Measured values from PMC11393453, “Phosphorylation of tau at a single residue inhibits binding to the E3 ubiquitin ligase, CHIP” (Nature Communications, 2024).

What was measured:
endogenous CHIP = experiment: Co-immunoprecipitation of endogenous CHIP with GFP-tau proteoforms; type: cell-based; conditions: Fig 3E
Procedure: (§1) Fig. 3 TauC3 Ser416 phosphorylation regulates CHIP-dependent tau homeostasis. A In vitro ubiquitination of tau proteoforms by CHIP. Samples were collected at the denoted timepoints, quenched in SDS-PAGE loading buffer, and analyzed by western blot. B Quantification of unmodified tau remaining following in vitro ubiquitination of varying tau proteoforms by CHIP. Unmodified tau remaining was analyzed by densitometry, normalized to 0-min time point, and curves were fit using one-phase exponential decay (n = 3 technical replicates). C Cartoon schematic depicting promoter architecture and varying C-terminal sequences for HEK293 FlpIn T-Rex cells expressing doxycycline inducible GFP-tau proteoforms. D Representative fluorescence micrographs for GFP-tau cells. Images show tau species associated with microtubules (green, false color), while nuclei are stained with Hoechst 33342 (blue, false color). Scale bar = 30 µm. Images are representative of three separate acquisitions. E Co-immunoprecipitation assay following IP of varying tau species from cells. Whole cell lysate (input) was used for loading controls, and co-immunoprecipitated CHIP was analyzed by western blot. Experiment was repeated in duplicate. F Representative western blot showing differing abundance of various tau proteoforms in HEK293 FlpIn T-Rex cells. Experiment was repeated in duplicate. G Quantification of tau protein abundance taken from three independent biological experiments. Tau:tubulin ratio was determined by densitometry and normalized to full-length tau. Error bars represent SD. Statistical significance was determined by one-way ANOVA with Tukey’s post hoc analysis. H Quantification of MAPT mRNA from three independent biological experiments. MAPT mRNA was normalized to GAPDH and shown relative to full-length tau. Error bars represent SD. Statistical significance was determined by one-way ANOVA with Tukey’s post hoc analysis.
Cells were washed once in 1X Dulbecco’s Phosphate Buffered Saline (D-PBS) and lysed in ice cold Pierce Immunoprecipitation (IP) lysis buffer (25 mM Tris-HCl pH 7.4, 150 mM NaCl, 1 mM EDTA, 1% NP-40). Lysates were collected by scraping, transferred to 1.5 mL microcentrifuge tubes, and incubated on ice for 15 min. […] Relative protein concentrations were determined by bicinchoninic acid assay (Pierce), and samples were normalized to the lowest protein concentration. […]
For tau immunoprecipitations, an aliquot (30 µL) of Protein A/G PLUS-agarose (Santa Cruz Biotech) per condition was collected and washed twice in ice cold IP lysis buffer. […] Inputs and eluates were subsequently analyzed by SDS-PAGE followed by western blotting. Quantification was performed by densitometry analysis in ImageJ (NIH).

HEK293 FlpIn T-Rex cells = experiment: Tau protein abundance by western blot (tau:tubulin); type: cell-based; conditions: Fig 3G; for normalized tau:tubulin ratios: normalized to full-length tau
Procedure: as §1
Construction of the stable dox-inducible HEK 293 eGFP-tau reporter cell lines was performed as described. In brief, parent HEK 293 Flp-In T-REx cells were harvested by trypsinization, resuspended in electroporation buffer containing 5 µg eGFP-tau plasmid DNA and 45 µg pOG44 plasmid DNA. Cells were electroporated using program Q-001 on a Lonza 4D-Nucleofector. Electroporated cells were immediately diluted in 10% FBS-DMEM and cultured for 48 h to recover. Following recovery, cells were selected with 100 µg/mL hygromycin until single colonies arose. Colonies were subsequently picked and screened for dox-inducible expression of eGFP-tau by fluorescence microscopy (Echo Revolve) and western blotting.
Prepared samples were separated on precast 4–20% SDS-PAGE gradient gels (Bio-Rad) for 35 min at 200 V. Proteins were transferred to nitrocellulose membranes using a Trans-Blot Turbo Transfer System (Bio-Rad). Membranes were blocked in Odyssey TBS Blocking Buffer (Licor) for 1 h at room temperature and then incubated in primary antibody in 1X Tris-Buffer saline containing 0.05% Tween-20 (1X TBS-T), plus 5% non-fat dry milk powder, and 0.02% NaN3 overnight at 4 °C with rotation. The following day, membranes were washed 3 times in 1X TBS-T and then incubated in secondary antibody diluted 1:10,000 in Odyssey TBS Antibody Diluent (Licor) for 1 h at room temperature. Following incubation with secondary antibody, membranes were washed 3 times in 1X TBS-T and imaged on an Odyssey Fc Imaging System (Licor). Quantification was performed by densitometry analysis in ImageJ (NIH). Raw images, along with select quantifications, can be found in Fig. S6. […]

tau: full length (FL) 0N4R splice isoform of tau, unmodified; recombinant or expressed in cells
CHIP/tau (endogenous CHIP; IntDen quantification, with induction): 1.597
Relative Binding (endogenous CHIP; IntDen quantification, with induction, relative to tauC3): 1.645
CHIP/Tau normalized to tauC3 (endogenous CHIP; second quantification): 0.04136
CHIP/Tau (endogenous CHIP; second quantification, CHIP over total tau (D-8)): 0.03219
normalized tau:tubulin ratios (HEK293 FlpIn T-Rex cells; replicate 1): 107.457
normalized tau:tubulin ratios (HEK293 FlpIn T-Rex cells; replicate 2): 93.4819
normalized tau:tubulin ratios (HEK293 FlpIn T-Rex cells; replicate 3): 99.0612
raw tau:tubulin ratios (HEK293 FlpIn T-Rex cells; replicate 1): 1.039
raw tau:tubulin ratios (HEK293 FlpIn T-Rex cells; replicate 2): 0.9043
raw tau:tubulin ratios (HEK293 FlpIn T-Rex cells; replicate 3): 0.9582
